Experimental data: ChEMBL document CHEMBL1201862, “PubChem BioAssay data set” (2004)
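Interpolation was linear, between the two tested concentrations surrounding the appropriate level; five concentrations were tested over 48 hours in 96-well plates. GI50 = concentration required for 50% inhibition of growth.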 The source made the active and inactive calls. No stated cut-off is given here; in the data, active = GI50 up to about 1.1 µM and inactive = higher.

Tests used:
Test in all cases: NCI-60 cell line screen, 48 h
786-0 = test system: 786-0
A498 = test system: A498
A549 = test system: A549
ACHN = test system: ACHN
BT-549 = test system: BT-549
CCRF-CEM = test system: CCRF-CEM
COLO 205 = test system: COLO 205
DU-145 = test system: DU-145
EKVX = test system: EKVX
HCC 2998 = test system: HCC 2998
HCT-116 = test system: HCT-116
HCT-15 = test system: HCT-15
HL-60 = test system: HL-60
HOP-62 = test system: HOP-62
HOP-92 = test system: HOP-92
HT-29 = test system: HT-29
Hs-578T = test system: Hs-578T
IGROV-1 = test system: IGROV-1
K562 = test system: K562
KM12 = test system: KM12
LOX IMVI = test system: LOX IMVI
M14 = test system: M14
MCF7 = test system: MCF7
MDA-MB-231 = test system: MDA-MB-231
MDA-MB-435 = test system: MDA-MB-435
MDA-N = test system: MDA-N
MOLT-4 = test system: MOLT-4
Malme-3M = test system: Malme-3M
NCI-H226 = test system: NCI-H226
NCI-H23 = test system: NCI-H23
NCI-H460 = test system: NCI-H460
NCI-H522 = test system: NCI-H522
NCI/ADR-RES = test system: NCI/ADR-RES
OVCAR-3 = test system: OVCAR-3
OVCAR-4 = test system: OVCAR-4
OVCAR-5 = test system: OVCAR-5
OVCAR-8 = test system: OVCAR-8
PC-3 = test system: PC-3
RPMI-8226 = test system: RPMI-8226
RXF 393 = test system: RXF 393
SF-268 = test system: SF-268
SF-295 = test system: SF-295
SF-539 = test system: SF-539
SK-MEL-28 = test system: SK-MEL-28
SK-MEL-5 = test system: SK-MEL-5
SK-OV-3 = test system: SK-OV-3
SN12C = test system: SN12C
SNB-19 = test system: SNB-19
SNB-75 = test system: SNB-75
SR = test system: SR
SW-620 = test system: SW-620
T47D = test system: T47D
TK-10 = test system: TK-10
U-251 = test system: U-251
UACC-257 = test system: UACC-257
UACC-62 = test system: UACC-62
UO-31 = test system: UO-31
CAKI-1 = test system: CAKI-1
SK-MEL-2 = test system: SK-MEL-2

CCN(CC)CCC(=O)c1ccc(Cl)c(Cl)c1
GI50 (786-0): 17.5 µM (inactive)
GI50 (A498): 18.5 µM (inactive)
GI50 (A549): > 100 µM (inactive)
GI50 (ACHN): 76.9 µM (inactive)
GI50 (BT-549): 21.2 µM (inactive)
GI50 (CCRF-CEM): 17.6 µM (inactive)
GI50 (COLO 205): 27.2 µM (inactive)
GI50 (DU-145): 67.1 µM (inactive)
GI50 (EKVX): > 100 µM (inactive)
GI50 (HCC 2998): 43.6 µM (inactive)
GI50 (HCT-116): 27.5 µM (inactive)
GI50 (HCT-15): 34.6 µM
GI50 (HL-60): 32.3 µM (inactive)
GI50 (HOP-62): > 100 µM (inactive)
GI50 (HOP-92): 14.8 µM (inactive)
GI50 (HT-29): 32.3 µM (inactive)
GI50 (Hs-578T): 17.1 µM (inactive)
GI50 (IGROV-1): 39.5 µM (inactive)
GI50 (K562): 24.8 µM (inactive)
GI50 (KM12): 34.6 µM (inactive)
GI50 (LOX IMVI): 15 µM (inactive)
GI50 (M14): 42.3 µM (inactive)
GI50 (MCF7): 12.8 µM (inactive)
GI50 (MDA-MB-231): > 10 µM (inactive)
GI50 (MDA-MB-435): 17.1 µM (inactive)
GI50 (MDA-N): > 10 µM (inactive)
GI50 (MOLT-4): 19.9 µM (inactive)
GI50 (Malme-3M): 24.7 µM (inactive)
GI50 (NCI-H226): > 100 µM (inactive)
GI50 (NCI-H23): > 10 µM (inactive)
GI50 (NCI-H460): > 100 µM (inactive)
GI50 (NCI-H522): 17.3 µM (inactive)
GI50 (NCI/ADR-RES): 34.1 µM (inactive)
GI50 (OVCAR-3): > 10 µM (inactive)
GI50 (OVCAR-4): 47.4 µM (inactive)
GI50 (OVCAR-5): > 100 µM (inactive)
GI50 (OVCAR-8): 37.2 µM (inactive)
GI50 (PC-3): 32.1 µM (inactive)
GI50 (RPMI-8226): 3.61 µM (inactive)
GI50 (RXF 393): 12.5 µM (inactive)
GI50 (SF-268): 20.8 µM (inactive)
GI50 (SF-295): > 100 µM (inactive)
GI50 (SF-539): > 10 µM (inactive)
GI50 (SK-MEL-28): 16.6 µM (inactive)
GI50 (SK-MEL-5): 20.1 µM (inactive)
GI50 (SK-OV-3): > 100 µM (inactive)
GI50 (SN12C): 39.3 µM (inactive)
GI50 (SNB-19): > 100 µM (inactive)
GI50 (SNB-75): 27.7 µM (inactive)
GI50 (SR): 24.3 µM (inactive)
GI50 (SW-620): 19.7 µM (inactive)
GI50 (T47D): 18.6 µM (inactive)
GI50 (TK-10): > 10 µM (inactive)
GI50 (U-251): 36.6 µM (inactive)
GI50 (UACC-257): 46.7 µM (inactive)
GI50 (UACC-62): 14.8 µM (inactive)
GI50 (UO-31): 41.3 µM (inactive)

CC(=O)NC1CCC(NC(=O)OC(C)(C)C)C(NC(=O)OC(C)(C)C)C1 (stereo not given)
GI50 (786-0): > 100 µM (inactive)
GI50 (A498): > 100 µM (inactive)
GI50 (A549): > 100 µM (inactive)
GI50 (ACHN): > 100 µM (inactive)
GI50 (BT-549): > 100 µM (inactive)
GI50 (CAKI-1): > 100 µM (inactive)
GI50 (CCRF-CEM): > 100 µM (inactive)
GI50 (COLO 205): > 100 µM (inactive)
GI50 (DU-145): > 100 µM (inactive)
GI50 (HCC 2998): > 100 µM (inactive)
GI50 (HCT-116): > 100 µM (inactive)
GI50 (HCT-15): > 100 µM
GI50 (HL-60): > 100 µM (inactive)
GI50 (HOP-62): > 100 µM (inactive)
GI50 (HOP-92): > 100 µM (inactive)
GI50 (HT-29): > 100 µM (inactive)
GI50 (Hs-578T): > 100 µM (inactive)
GI50 (IGROV-1): > 100 µM (inactive)
GI50 (K562): > 100 µM (inactive)
GI50 (KM12): > 100 µM (inactive)
GI50 (LOX IMVI): > 100 µM (inactive)
GI50 (M14): > 100 µM (inactive)
GI50 (MCF7): > 100 µM (inactive)
GI50 (MDA-MB-231): > 100 µM (inactive)
GI50 (MDA-MB-435): > 100 µM (inactive)
GI50 (MDA-N): > 100 µM (inactive)
GI50 (MOLT-4): > 100 µM (inactive)
GI50 (Malme-3M): > 100 µM (inactive)
GI50 (NCI-H226): > 100 µM (inactive)
GI50 (NCI-H23): > 100 µM (inactive)
GI50 (NCI-H460): > 100 µM (inactive)
GI50 (NCI-H522): > 100 µM (inactive)
GI50 (NCI/ADR-RES): > 100 µM (inactive)
GI50 (OVCAR-3): > 100 µM (inactive)
GI50 (OVCAR-4): > 100 µM (inactive)
GI50 (OVCAR-5): > 100 µM (inactive)
GI50 (OVCAR-8): > 100 µM (inactive)
GI50 (PC-3): > 100 µM (inactive)
GI50 (RPMI-8226): > 100 µM (inactive)
GI50 (RXF 393): > 100 µM (inactive)
GI50 (SF-268): > 100 µM (inactive)
GI50 (SF-295): > 100 µM (inactive)
GI50 (SF-539): > 100 µM (inactive)
GI50 (SK-MEL-28): > 100 µM (inactive)
GI50 (SK-MEL-2): > 100 µM (inactive)
GI50 (SK-MEL-5): > 100 µM (inactive)
GI50 (SK-OV-3): > 100 µM (inactive)
GI50 (SN12C): > 100 µM (inactive)
GI50 (SNB-19): > 100 µM (inactive)
GI50 (SNB-75): > 100 µM (inactive)
GI50 (SR): > 100 µM (inactive)
GI50 (SW-620): > 100 µM (inactive)
GI50 (T47D): > 100 µM (inactive)
GI50 (TK-10): > 100 µM (inactive)
GI50 (U-251): > 100 µM (inactive)
GI50 (UACC-257): > 100 µM (inactive)
GI50 (UACC-62): > 100 µM (inactive)
GI50 (UO-31): > 100 µM (inactive)
